Assay results from patent publication US8853490B2 (priority 2010, dated 2014).
Read-outs that look alike come from different tables or passages of the source.

Assays:
[1] = test system: Fusarium graminearum (FGR; isolate 73B ISU); type: cell-based
[2] = test system: Fusarium verticillioides (FVE; isolate MO33); type: cell-based
[3] = test system: Fusarium verticillioides (FVE; isolate MO33); conditions: general statement on parent polypeptides; cited from earlier work
[4] = test system: Diplodia maydis (DMA; isolate Warren-IN-96); type: cell-based
[5] = test system: Fusarium graminearum (FGR; isolate 73B ISU); conditions: general statement on parent polypeptides; cited from earlier work
[6] = test system: Colletotrichum graminicola (CGR; isolate Carroll-IA-99); conditions: general statement on parent polypeptides; cited from earlier work
[7] = test system: Diplodia maydis (DMA; isolate Warren-IN-96); conditions: general statement on parent polypeptides; cited from earlier work
[8] = test system: Colletotrichum graminicola (CGR; isolate Carroll-IA-99); type: cell-based

| Substance | In vitro antifungal activity (IC50) against F. graminearum (FGR) ([1]; high salt conditions) | In vitro antifungal activity (IC50) against F. verticillioides (FVE) [2] | In vitro antifungal activity (IC50) against F. graminearum (FGR) ([1]; low salt conditions) | also measured |
| --- | --- | --- | --- | --- |
| LB-9827-3B-21E10: LBNL variant generated through gene shuffling of the LB-9827-1 mature peptide coding sequence (LSKYGGECSRAHNTCTYRKGGKNQVVNCPSAANKKCKSDRHHCEYDEYHKRVDCQTPV; Synthetic peptide LB-9827-3B-21E10) | 1.25 ppm | 30 ppm | – | – |
| LB-9827-3B-25F2: LBNL variant generated through gene shuffling of the LB-9827-1 mature peptide coding sequence (LSKYGGECSREHNTCTYLKGGKNQVVACGSAANKKCKRDRHHCEYDDYHKTVDCQTPV; Synthetic peptide LB-9827-3B-25F2) | 2.5 ppm | 15 ppm | – | – |
| LB-5220 (r2 5G7): LBNL variant generated through gene shuffling of the LB-5220 mature peptide coding sequence (LKYTGTCRRANNQCKYKGQNNRDTFVKCPTFANKKCTRDGAKCSFDSYSRAVTCD; Synthetic peptide LB-5220 (r2-5G7)) | >100 ppm | – | >10 ppm | – |
| LB-9827-3A-11E4: LBNL variant generated through gene shuffling of the LB-9827-1 mature peptide coding sequence (LSKYGGECSRKHNTCTYKKGGKNQIVNCPTAANKRCKTDRHHCEYDEYHRRVDCQTPV; LB-9827-3A-11E4) | 0.63 ppm | 15 ppm | – | – |
| LB-5220 (ps 1B4): LBNL variant generated through gene shuffling of the LB-5220 mature peptide coding sequence (LKYTGTCTRKNNQCKYRGQNNRDTFVKCPTFANKRCTRDGAPCSFDSYSRAVTCD; Synthetic peptide LB-5220 (ps-1B4)) | >100 ppm | – | >10 ppm | – |
| LB-5220: parent antifungal polypeptide isolated from Penicillium simplicissimum, previously disclosed in U.S. Pat. No. 7,306,946 (LKYTGTCTRANNQCKYKGQNDRDTFVKCPTFANKKCTRDGAPCSFDSYSRAVTCD; listed as Penicillium simplicissimum) [reference compound] | >100 ppm | – | >10 ppm | antifungal activity against Fusarium verticillioides (FVE), in words [3]: exhibit antifungal activity; In vitro antifungal activity (IC50) against D. maydis (DMA) ([4]; high salt conditions): 50 ppm; In vitro antifungal activity (IC50) against D. maydis (DMA) ([4]; low salt conditions): <0.1 ppm; antifungal activity against Fusarium graminearum (FGR), in words [5]: exhibit antifungal activity; antifungal activity against Colletotrichum graminicola (CGR), in words [6]: exhibit antifungal activity; antifungal activity against Diplodia maydis (DMA), in words [7]: exhibit antifungal activity |
| LB-9827-1: parent antifungal polypeptide from the fungus Monascus ruber, previously disclosed in U.S. Pat. No. 7,306,946 (LSKFGGECSLKHNTCTYLKGGKNHVVNCGSAANKKCKSDRHHCEYDEHHKRVDCQTPV; Monascus ruber) [reference compound] | 1.5 ppm | – | <0.1 ppm | antifungal activity against Fusarium verticillioides (FVE), in words [3]: exhibit antifungal activity; In vitro antifungal activity (IC50) against D. maydis (DMA) ([4]; high salt conditions): 12 ppm; In vitro antifungal activity (IC50) against D. maydis (DMA) ([4]; low salt conditions): 1.5 ppm; antifungal activity against Fusarium graminearum (FGR), in words [5]: exhibit antifungal activity; antifungal activity against Colletotrichum graminicola (CGR), in words [6]: exhibit antifungal activity; antifungal activity against Diplodia maydis (DMA), in words [7]: exhibit antifungal activity; In vitro antifungal activity (IC50) against C. graminicola (CGR) ([8]; high salt conditions): 3 ppm; In vitro antifungal activity (IC50) against C. graminicola (CGR) ([8]; low salt conditions): 1.5 ppm |
| LB-9827-3B-25G5: LBNL variant generated through gene shuffling of the LB-9827-1 mature peptide coding sequence (LSKYGGECSRAHNTCTYRKGGKNQVVKCGTAANKKCKSDRHHCEYDDYHKRVDCQTPV; Synthetic peptide LB-9827-3B-25G5) | 2.5 ppm | 3.8 ppm | – | – |
| LB-5220 (r2 6F2): LBNL variant generated through gene shuffling of the LB-5220 mature peptide coding sequence (LKYTGTCRRANNQCKYKGQNNRDTFVKCPTFANKKCTRDGEKCSFDSYSRAVTCD; LB-5220 (r2-6F2)) | >100 ppm | – | >10 ppm | – |
